According to ChEMBL document CHEMBL4002641, “Indolyl-naphthyl-maleimides as potent and selective inhibitors of protein kinase C-α/β” (Bioorg Med Chem Lett, 2017):

Tests used:
[1] = molecular target: T1, Protein kinase C theta type (Homo sapiens, UniProt Q04759); assay: Inhibition of PKCtheta (unknown origin) after 60 mins in presence of [gamma33P]ATP by scintillation proximity assay
[2] = molecular target: T2, Protein kinase C alpha type (Homo sapiens, UniProt P17252); assay: Inhibition of PKCalpha (unknown origin) after 60 mins in presence of [gamma33P]ATP by scintillation proximity assay
[3] = molecular target: Protein kinase C delta type (Homo sapiens, UniProt Q05655); assay: Inhibition of PKCdelta (unknown origin) after 60 mins in presence of [gamma33P]ATP by scintillation proximity assay
Chain of Protein kinase C delta type (Q05655 whole entry): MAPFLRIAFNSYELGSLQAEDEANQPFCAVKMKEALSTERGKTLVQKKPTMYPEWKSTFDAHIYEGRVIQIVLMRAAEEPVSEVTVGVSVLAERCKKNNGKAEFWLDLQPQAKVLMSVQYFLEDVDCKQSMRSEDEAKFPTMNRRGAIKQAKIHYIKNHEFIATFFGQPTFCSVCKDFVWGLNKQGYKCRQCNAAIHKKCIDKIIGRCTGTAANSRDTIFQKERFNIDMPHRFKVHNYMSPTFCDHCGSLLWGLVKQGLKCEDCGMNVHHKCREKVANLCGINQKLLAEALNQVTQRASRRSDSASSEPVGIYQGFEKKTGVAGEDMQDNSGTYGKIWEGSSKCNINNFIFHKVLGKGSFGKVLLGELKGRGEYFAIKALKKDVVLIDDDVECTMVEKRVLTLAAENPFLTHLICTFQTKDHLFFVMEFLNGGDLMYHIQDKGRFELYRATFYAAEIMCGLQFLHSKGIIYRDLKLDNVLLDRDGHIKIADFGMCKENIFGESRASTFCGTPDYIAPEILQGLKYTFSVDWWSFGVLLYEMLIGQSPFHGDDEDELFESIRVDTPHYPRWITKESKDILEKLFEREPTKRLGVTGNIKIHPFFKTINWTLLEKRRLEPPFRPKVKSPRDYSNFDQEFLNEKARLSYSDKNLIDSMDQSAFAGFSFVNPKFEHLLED

[4] = molecular target: Protein kinase C eta type (Homo sapiens, UniProt P24723); assay: Inhibition of PKCeta (unknown origin) after 60 mins in presence of [gamma33P]ATP by scintillation proximity assay
Chain of Protein kinase C eta type (P24723 whole entry): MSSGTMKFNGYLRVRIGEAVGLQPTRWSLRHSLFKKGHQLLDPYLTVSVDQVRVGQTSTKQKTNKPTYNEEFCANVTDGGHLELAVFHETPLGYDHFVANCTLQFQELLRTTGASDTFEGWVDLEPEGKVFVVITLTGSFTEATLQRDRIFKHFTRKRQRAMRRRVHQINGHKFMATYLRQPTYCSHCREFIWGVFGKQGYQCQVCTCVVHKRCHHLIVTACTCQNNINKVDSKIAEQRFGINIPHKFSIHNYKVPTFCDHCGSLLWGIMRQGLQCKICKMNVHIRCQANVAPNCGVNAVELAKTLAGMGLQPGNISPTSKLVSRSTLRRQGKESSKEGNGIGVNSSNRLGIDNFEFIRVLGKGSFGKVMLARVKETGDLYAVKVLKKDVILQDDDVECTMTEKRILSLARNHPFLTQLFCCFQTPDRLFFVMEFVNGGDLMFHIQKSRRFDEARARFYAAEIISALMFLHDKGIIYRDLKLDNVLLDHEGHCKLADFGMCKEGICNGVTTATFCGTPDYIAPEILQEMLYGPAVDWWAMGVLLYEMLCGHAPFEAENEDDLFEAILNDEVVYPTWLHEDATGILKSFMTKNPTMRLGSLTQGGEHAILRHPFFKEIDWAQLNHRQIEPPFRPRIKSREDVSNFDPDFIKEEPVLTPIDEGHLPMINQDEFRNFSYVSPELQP

[5] = molecular target: T3, Protein kinase C epsilon type (Homo sapiens, UniProt Q02156); assay: Inhibition of PKCepsilon (unknown origin) after 60 mins in presence of [gamma33P]ATP by scintillation proximity assay
T3 sequence (Q02156 whole entry): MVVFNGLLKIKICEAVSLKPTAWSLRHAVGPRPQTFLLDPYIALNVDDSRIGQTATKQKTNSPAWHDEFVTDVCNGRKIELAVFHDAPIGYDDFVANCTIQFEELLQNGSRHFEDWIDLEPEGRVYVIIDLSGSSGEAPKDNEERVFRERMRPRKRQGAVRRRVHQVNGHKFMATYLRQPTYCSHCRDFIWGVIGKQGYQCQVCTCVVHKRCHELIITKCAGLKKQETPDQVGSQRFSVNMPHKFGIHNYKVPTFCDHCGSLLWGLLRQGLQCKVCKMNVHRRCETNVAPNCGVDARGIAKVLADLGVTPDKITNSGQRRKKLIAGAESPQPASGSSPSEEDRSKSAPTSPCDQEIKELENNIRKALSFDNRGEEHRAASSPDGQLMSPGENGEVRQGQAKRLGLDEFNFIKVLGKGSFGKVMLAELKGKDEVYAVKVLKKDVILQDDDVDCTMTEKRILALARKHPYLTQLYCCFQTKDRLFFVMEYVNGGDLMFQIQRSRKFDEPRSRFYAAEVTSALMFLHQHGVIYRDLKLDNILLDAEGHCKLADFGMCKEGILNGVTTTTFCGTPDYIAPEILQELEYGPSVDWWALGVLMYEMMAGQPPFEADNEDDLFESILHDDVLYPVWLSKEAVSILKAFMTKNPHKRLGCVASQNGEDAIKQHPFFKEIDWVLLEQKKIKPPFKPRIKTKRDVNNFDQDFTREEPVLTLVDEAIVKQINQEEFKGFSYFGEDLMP

[6] = molecular target: T4, Protein kinase C beta type (Homo sapiens, UniProt P05771); assay: Inhibition of PKCbeta1 (unknown origin) after 60 mins in presence of [gamma33P]ATP by scintillation proximity assay
T4 sequence (P05771 whole entry): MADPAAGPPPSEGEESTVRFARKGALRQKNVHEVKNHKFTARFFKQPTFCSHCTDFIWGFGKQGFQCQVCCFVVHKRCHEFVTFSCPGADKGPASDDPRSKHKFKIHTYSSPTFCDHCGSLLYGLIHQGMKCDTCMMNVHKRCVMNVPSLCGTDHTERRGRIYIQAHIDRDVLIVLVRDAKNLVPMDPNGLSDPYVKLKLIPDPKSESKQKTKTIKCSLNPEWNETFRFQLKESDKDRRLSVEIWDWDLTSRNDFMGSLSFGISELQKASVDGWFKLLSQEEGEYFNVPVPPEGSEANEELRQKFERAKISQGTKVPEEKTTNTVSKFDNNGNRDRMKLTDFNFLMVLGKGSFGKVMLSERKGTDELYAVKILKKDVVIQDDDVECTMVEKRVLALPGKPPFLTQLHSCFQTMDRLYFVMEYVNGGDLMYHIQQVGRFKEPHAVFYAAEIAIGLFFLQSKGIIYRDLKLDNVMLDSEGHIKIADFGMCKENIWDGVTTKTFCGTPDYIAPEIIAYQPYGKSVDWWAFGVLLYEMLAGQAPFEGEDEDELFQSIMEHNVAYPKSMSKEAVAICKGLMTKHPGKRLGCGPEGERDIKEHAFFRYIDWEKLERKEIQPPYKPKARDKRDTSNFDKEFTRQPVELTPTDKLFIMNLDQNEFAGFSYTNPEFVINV

[7] = Aqueous solubility of the compound; format: physicochemical; conditions: buffer
[8] = molecular target: T1, Protein kinase C theta type; assay: Inhibition of PKCtheta in human Jurkat T cells assessed as reduction in anti-CD3/CD28 antibody-induced T-cell activation by measuring decrease in IL-2 secretion after 5 hrs by luciferase reporter gene assay; format: cell-based
PBMC = assay: Inhibition of human PBMC proliferation assessed as decrease in [3H]-TdR uptake after 6 days by mixed lymphocyte reaction assay; format: functional, cell-based
[9] = molecular target: T5, Cyclin-dependent kinase 2 (Homo sapiens, UniProt P24941); assay: Inhibition of CDK2 (unknown origin)
[10] = molecular target: T5, Cyclin-dependent kinase 2; assay: Inhibition of CDK2 (unknown origin) at 1 uM
[11] = molecular target: T4, Protein kinase C beta type; assay: Reversible competitive inhibition of PKCbeta1 (unknown origin)
[12] = molecular target: T2, Protein kinase C alpha type; assay: Reversible competitive inhibition of PKCalpha (unknown origin)

T1 sequence (Q04759 whole entry): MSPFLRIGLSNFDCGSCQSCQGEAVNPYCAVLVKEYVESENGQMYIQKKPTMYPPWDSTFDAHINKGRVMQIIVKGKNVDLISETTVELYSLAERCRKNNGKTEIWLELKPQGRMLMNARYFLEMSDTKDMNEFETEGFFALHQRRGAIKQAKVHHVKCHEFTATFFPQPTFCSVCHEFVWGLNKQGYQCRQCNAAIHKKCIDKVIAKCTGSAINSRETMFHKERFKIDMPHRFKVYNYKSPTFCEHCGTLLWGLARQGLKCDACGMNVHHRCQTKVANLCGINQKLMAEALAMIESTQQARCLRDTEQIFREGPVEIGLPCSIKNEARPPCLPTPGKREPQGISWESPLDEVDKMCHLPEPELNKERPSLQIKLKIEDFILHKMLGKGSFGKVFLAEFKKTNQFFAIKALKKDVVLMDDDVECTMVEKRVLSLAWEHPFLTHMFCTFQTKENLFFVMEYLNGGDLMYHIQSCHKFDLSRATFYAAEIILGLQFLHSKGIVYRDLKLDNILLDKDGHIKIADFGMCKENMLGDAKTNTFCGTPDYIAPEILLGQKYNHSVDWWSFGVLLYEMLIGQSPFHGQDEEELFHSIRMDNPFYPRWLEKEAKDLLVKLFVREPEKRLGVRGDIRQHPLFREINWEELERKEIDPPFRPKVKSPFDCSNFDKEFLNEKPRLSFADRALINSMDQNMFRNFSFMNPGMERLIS

Row | SMILES | IC50 [1] [nM] | IC50 [2] [nM] | IC50 [3] [nM] | IC50 [4] [nM] | IC50 [5] [nM] | IC50 [6] [nM] | solubility [7] | IC50 [8] [nM] | IC50 (PBMC) [nM] | IC50 [9] [nM] | inhibition [10] [%] | Ki [11] [nM] | Ki [12] [nM]
1 | CC(C)NCc1ccc2ccc(Cl)c(C3=C(c4cn(C)c5ccccc45)C(=O)NC3=O)c2c1 | 101 | 2.7 | 79 | 182 | 73 | 2.9 | – | – | – | – | – | – | –
2 | Cn1cc(C2=C(c3c(Cl)ccc4ccc(CN5CCC5)cc34)C(=O)NC2=O)c2ccccc21 | 254 | 3.4 | 230 | 316 | 223 | 2 | – | – | – | – | – | – | –
3 | CN(C)Cc1ccc2c(C3=C(c4cn(C)c5ccccc45)C(=O)NC3=O)c(Cl)ccc2c1 | – | 3.7 | 17 | 30 | 18 | 6.8 | Insoluble | 185 | 54 | – | – | – | –
4 | CN(Cc1ccc2ccc(Cl)c(C3=C(c4cn(C)c5ccccc45)C(=O)NC3=O)c2c1)C1CC1 | > 316 | 63 | > 316 | > 316 | > 316 | 60 | Insoluble | > 3550 | – | – | – | – | –
5 | CN(C)Cc1ccc2c(C3=C(c4c[nH]c5ccccc45)C(=O)NC3=O)c(Cl)ccc2c1 | 12 | 1.8 | – | – | 4.3 | 3.4 | Insoluble | 156 | 59 | – | – | – | –
6 | CN(C)Cc1ccc2ccc(Cl)c(C3=C(c4cn(C)c5ccccc45)C(=O)NC3=O)c2c1 | 263 | 4 | 214 | 565 | 402 | 3.7 | Insoluble | 402 | 277 | 220 | > 50 | 0.5 | 1
7 | Cn1cc(C2=C(c3cccc4cc(CN)ccc34)C(=O)NC2=O)c2ccccc21 | 276 | 136 | 92 | 308 | 225 | 133 | – | – | – | – | – | – | –
8 | CN(C)Cc1ccc2ccc(Cl)c(C3=C(c4c[nH]c5ccccc45)C(=O)NC3=O)c2c1 | 216 | 0.5 | 303 | 316 | 182 | 0.7 | Insoluble | 708 | 406 | – | – | – | –
9 | Cc1ccc2ccc(CN)cc2c1C1=C(c2c[nH]c3ccccc23)C(=O)NC1=O | > 316 | 49 | > 316 | > 316 | > 316 | 43 | – | – | – | – | – | – | –
10 | NCc1ccc2cccc(C3=C(c4c[nH]c5ccccc45)C(=O)NC3=O)c2c1 | > 316 | 36 | > 316 | > 316 | > 316 | 75 | – | – | – | – | – | – | –
11 | CC(=O)N(C)Cc1ccc2ccc(Cl)c(C3=C(c4cn(C)c5ccccc45)C(=O)NC3=O)c2c1 | > 316 | 63 | 284 | > 316 | > 316 | 41 | – | – | – | – | – | – | –
12 | COCCNCc1ccc2ccc(Cl)c(C3=C(c4cn(C)c5ccccc45)C(=O)NC3=O)c2c1 | 21 | 2.8 | 39 | 206 | 110 | 3.1 | – | – | – | – | – | – | –
13 | CN1CCN(c2nc(C3=C(c4c[nH]c5ccccc45)C(=O)NC3=O)c3ccccc3n2)CC1 [SOTRASTAURIN] | – | – | – | – | – | – | – | 81 | 28 | – | – | – | –
14 | Cc1ccc2ccc(CN)cc2c1C1=C(c2cn(C)c3ccccc23)C(=O)NC1=O | > 316 | 95 | > 316 | > 316 | > 316 | 42 | – | – | – | – | – | – | –
15 | CNCc1ccc2ccc(Cl)c(C3=C(c4cn(C)c5ccccc45)C(=O)NC3=O)c2c1 | 21 | 0.5 | 15 | 34 | 30 | 1.4 | – | – | – | – | – | – | –
16 | Cn1cc(C2=C(c3cccc4ccc(CN)cc34)C(=O)NC2=O)c2ccccc21 | > 316 | 73 | > 316 | > 316 | > 316 | 93 | – | – | – | – | – | – | –
17 | Cn1cc(C2=C(c3c(Cl)ccc4ccc(CN)cc34)C(=O)NC2=O)c2ccccc21 | > 316 | 4.7 | 254 | > 316 | > 316 | 3.3 | – | – | – | – | – | – | –
